Measurements: PMC4774911, “Biochemical Screening of Five Protein Kinases from Plasmodium falciparum against 14,000 Cell-Active Compounds” (PLoS ONE, 2016)
Like-named read-outs stand apart in the source and are kept apart here.

Legend:
HepG2 cells = conditions: Nature 2010, cited from earlier work
DD2 [1] = test system: DD2; set-up: method as in F.J. Gamo et al., Nature 2010; conditions: P. falciparum Dd2; downloaded from ChEMBL ref F.J. Gamo et al., Nature 2010; cited from earlier work
[2] = biological target: T1, Plasmodium falciparum protein kinase 6 (PK6) (Plasmodium falciparum, UniProt Q8IDW1); experiment: biochemical
T1 construct: 6-Histidine (N); made in house
T1 sequence (Q8IDW1 1-305): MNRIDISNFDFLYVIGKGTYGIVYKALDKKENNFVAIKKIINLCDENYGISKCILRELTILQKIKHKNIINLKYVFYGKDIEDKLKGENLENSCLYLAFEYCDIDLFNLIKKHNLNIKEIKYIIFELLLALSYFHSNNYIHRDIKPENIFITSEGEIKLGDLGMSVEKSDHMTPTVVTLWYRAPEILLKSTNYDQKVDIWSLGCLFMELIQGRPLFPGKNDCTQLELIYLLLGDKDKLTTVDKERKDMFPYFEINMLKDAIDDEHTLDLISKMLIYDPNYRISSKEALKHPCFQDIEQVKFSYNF

P. falciparum 3D7 cells = conditions: Nature 2010, cited from earlier work
3D7 PFLDH [3] = test system: 3D7 PFLDH; set-up: method as in F.J. Gamo et al., Nature 2010; conditions: downloaded from ChEMBL ref F.J. Gamo et al., Nature 2010; cited from earlier work
3D7 PFLDH [4] = test system: 3D7 PFLDH; set-up: method as in F.J. Gamo et al., Nature 2010; concentration or dose not given beside the values; conditions: downloaded from ChEMBL, ref F.J. Gamo et al., Nature 2010; cited from earlier work
DD2 [5] = test system: DD2; set-up: method as in F.J. Gamo et al., Nature 2010; conditions: downloaded from ChEMBL, ref F.J. Gamo et al., Nature 2010; cited from earlier work
[6] = biological target: T2, Plasmodium falciparum calcium-dependent protein kinase 1 (CDPK1) (Plasmodium falciparum, UniProt P62344); experiment: CDPK1 Kinase-Glo ATP-consumption screen and dose-response; assay type: biochemical; conditions: hits below 1 uM; read-out: CDPK1 IC50
T2 construct: 6-Histidine (N); made in house
Method in brief: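 Single-point testing used 1 μM final compound, then dose-response, against CDPK4 and CDPK1 with Syntide-2 (40 μM) as substrate. After 90 min, reactions were halted by 5 mM EGTA, and kinase activity was inferred from depleted ATP via Kinase-Glo luminescence.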

[7] = HepG2 cells, downloaded from ChEMBL ref F.J. Gamo et al.
[8] = hits below 1 uM, read-out: PK6 IC50
[9] = P. falciparum 3D7, downloaded from ChEMBL ref F.J. Gamo et al.
[10] = HepG2, downloaded from ChEMBL, ref F.J. Gamo et al.
[11] = 3D7, downloaded from ChEMBL, ref F.J. Gamo et al.

T2 sequence (P62344 whole entry): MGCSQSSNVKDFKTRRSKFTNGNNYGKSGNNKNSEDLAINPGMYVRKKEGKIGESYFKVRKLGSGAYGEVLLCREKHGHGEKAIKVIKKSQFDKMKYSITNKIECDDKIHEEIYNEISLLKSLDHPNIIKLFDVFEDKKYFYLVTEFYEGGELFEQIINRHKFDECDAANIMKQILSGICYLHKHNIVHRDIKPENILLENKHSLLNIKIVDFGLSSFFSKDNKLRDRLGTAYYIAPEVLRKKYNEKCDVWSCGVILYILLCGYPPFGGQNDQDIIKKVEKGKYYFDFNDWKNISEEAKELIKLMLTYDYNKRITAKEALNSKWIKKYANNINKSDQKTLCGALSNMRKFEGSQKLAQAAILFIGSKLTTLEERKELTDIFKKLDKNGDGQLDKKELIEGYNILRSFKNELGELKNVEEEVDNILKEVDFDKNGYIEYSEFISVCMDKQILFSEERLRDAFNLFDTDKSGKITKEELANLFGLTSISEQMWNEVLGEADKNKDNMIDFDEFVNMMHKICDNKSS

IC50 [2, 8] [nM] | IC50 [6] [nM] | Structure (SMILES) | PCT_INHIB_HEPG2 (HepG2 cells; [7]) | PCT_INHB_DD2 (DD2 [1]) | PCT_IHB_3D7 (P. falciparum 3D7 cells; [9]) | pXC50_3D7 (P. falciparum 3D7 cells; [9]) | PCT_INHIB_3D7_PFLDH (3D7 PFLDH [3]) | PCT_INHIB_HEPG2 (HepG2 cells; [10]) [%] | PCT_INHIB_3D7_PFLDH (3D7 PFLDH [4]) [%] | PCT_INHB_DD2 (DD2 [5]) [%] | PCT_IHB_3D7 (P. falciparum 3D7 cells; [11]) [%] | pXC50_3D7 (P. falciparum 3D7 cells; [11]) | IC50 [2] [nM]
80 | 58 | Cl.NC(=O)c1ccccc1Nc1nc(Nc2cccc(N3CCN(CCO)CC3)c2)ncc1Cl [TCMDC-134114] | – | – | – | – | – | 93 | 1 | 98 | 95 | 7.402 | –
143 | 45 | CNC(=O)c1ccccc1Nc1nc(Nc2ccc(N3CCN(C)CC3)nc2)ncc1C.Cl [TCMDC-134123] | – | – | – | – | – | 75 | 4 | 50 | 92 | 5.942 | –
42 | 144 | CNC(=O)c1ccccc1Nc1nc(Nc2ccc(N3CCOCC3)cc2)ncc1Cl.Cl [TCMDC-134144] | – | – | – | – | – | 75 | 0 | 97 | 97 | 6.138 | –
129 | 76 | Cc1cc(Nc2ncc(Cl)c(Nc3ccccc3C(N)=O)n2)n[nH]1 [TCMDC-134170] | – | – | – | – | – | 70 | 0 | 96 | 98 | 6.091 | –
385 | 145 | CS(=O)(=O)Cc1ccc(Nc2nccc(N3CCCc4cc(NC(=O)Nc5cccc(C(F)(F)F)c5)ccc43)n2)cc1 [TCMDC-134309] | – | – | – | – | – | 46 | 0 | 99 | 100 | 6.829 | –
269 | – | CCNC(=O)Nc1ccc(N(C)c2ccnc(Nc3ccc(CS(C)(=O)=O)cc3)n2)cc1.Cl [TCMDC-138759] | – | – | – | – | – | 0 | 2 | 99 | 100 | 7.051 | –
402 | – | CN(c1ccc(NC(=O)Nc2cccc(Cl)c2)cc1)c1ccnc(N)n1.Cl [TCMDC-138782] | – | – | – | – | – | 75 | 0 | 40 | 100 | 6.202 | –

The remaining lines, values behind:

Structure (SMILES) | IC50 [2, 8] [nM] | IC50 [6] [nM] | PCT_INHIB_HEPG2 (HepG2 cells; [7]) | PCT_INHB_DD2 (DD2 [1]) | PCT_IHB_3D7 (P. falciparum 3D7 cells; [9]) | pXC50_3D7 (P. falciparum 3D7 cells; [9]) | PCT_INHIB_3D7_PFLDH (3D7 PFLDH [3]) | PCT_INHIB_HEPG2 (HepG2 cells; [10]) [%] | PCT_INHIB_3D7_PFLDH (3D7 PFLDH [4]) [%] | PCT_INHB_DD2 (DD2 [5]) [%] | PCT_IHB_3D7 (P. falciparum 3D7 cells; [11]) [%] | pXC50_3D7 (P. falciparum 3D7 cells; [11]) | IC50 [2] [nM]
Nc1ncc(-c2cccc(F)c2)cc1-c1nc2cc(F)ccc2[nH]1.O=C(O)C(F)(F)F [TCMDC-133132] | 206 | – | 54 | 88 | 100 | 6.757 | 0 | – | – | – | – | – | –
CNC(=O)c1ccccc1Nc1nc(Nc2cccc(CS(C)(=O)=O)c2)ncc1C.O=CO [TCMDC-133809] | 133 | 145 | – | – | – | – | – | 74 | 0 | 95 | 97 | 6.2733 | –
COc1ccc(Nc2ncc(C#N)c(Nc3ccccc3C(N)=O)n2)cc1N1CCN(C)CC1.Cl [TCMDC-134117] | 61 | 89 | – | – | – | – | – | 56 | 0 | 97 | 93 | 6.867 | –
COc1ccc(Nc2ncc(OC)c(Nc3ccccc3C(N)=O)n2)cc1N1CCN(C)CC1.O=CO [TCMDC-134149] | 270 | 967 | – | – | – | – | – | 63 | 0 | 96 | 100 | 6.131 | –
COc1ccc(Nc2ncc(Cl)c(Nc3cccnc3C(N)=O)n2)cc1N1CCN(C)CC1.Cl [TCMDC-134163] | 86 | 559 | – | – | – | – | – | 77 | 6 | 97 | 95 | 6.6478 | –
O=C(O)C(F)(F)F.O=c1[nH]ccc2nc(N[C@@H]3CCCNC3)nc(Nc3ccc(S(=O)(=O)N4CCOCC4)cc3)c12 [TCMDC-135038] | 115 | 146 | – | – | – | – | – | 13 | 0 | 99 | 96 | 6.13 | –
CN1CCN(c2ccc(Nc3nccc(-c4cnn5ncccc45)n3)cc2Cl)CC1 [TCMDC-138688] | 179 | 232 | 65 | 92 | 95 | 6.08 | 0 | – | – | – | – | – | –
CC(=O)c1ccc(NC(=O)Nc2ccc(N(C)c3ccnc(Nc4cccc(CS(C)(=O)=O)c4)n3)cc2)cc1 [TCMDC-138736] | 138 | – | – | – | – | – | – | 86 | 0 | 98 | 100 | 6.9122 | –
CN(c1ccc2c(c1)nc(NCc1ccc(F)cc1)n2C)c1ccnc(Nc2ccc(CS(C)(=O)=O)cc2)n1.Cl [TCMDC-138747] | 844 | – | – | – | – | – | – | 48 | 7 | 79 | 97 | 6.082 | –
NS(=O)(=O)c1cccc(Nc2nccc(-c3cnn4ncccc34)n2)c1 [TCMDC-138919] | 246 | – | 39 | 89 | 89 | 6.18 | 0 | – | – | – | – | – | –
CN(c1ccc(NC(=O)Nc2cc(C(F)(F)F)ccc2F)cc1)c1ccnc(NCCN2CCOCC2)n1.O=C(O)C(F)(F)F [TCMDC-141590] | 520 | – | – | – | – | – | – | 67 | 0 | 73 | 97 | 6.29 | –
CCN(CC)CCNc1nccc(N(C)c2ccc(NC(=O)Nc3cc(C(F)(F)F)ccc3F)cc2)n1.O=C(O)C(F)(F)F [TCMDC-141632] | – | – | – | – | – | – | – | 74 | 1 | 25 | 97 | 6.26 | 917
CCN(CC)CCCNc1nccc(N(C)c2ccc(NC(=O)Nc3cc(C(F)(F)F)ccc3F)cc2)n1.O=C(O)C(F)(F)F [TCMDC-141634] | 705 | – | – | – | – | – | – | 96 | 0 | 19 | 94 | 5.978 | –
CN(c1ccc(NC(=O)Nc2cc(C(C)(C)C)on2)cc1)c1ccnc(NCCN2CCOCC2)n1.O=C(O)C(F)(F)F [TCMDC-141706] | 375 | – | – | – | – | – | – | 51 | 0 | 18 | 95 | 5.949 | –
